We go through eleven compounds from article PMC9783227, “New Derivatives of the Multi-Stage Active Malaria Box Compound MMV030666 and Their Antiplasmodial Potencies” (Pharmaceuticals, 2022).

pIC50: −log10 of the molar value. Where two headings read alike, the source gives them in different places.

What is called pIC50 is the IC50 on a negative log10 scale, so that one unit is a factor of ten. By IC50 is commonly meant the concentration at which inhibition is half-maximal. Read a low IC50 as inhibition by little substance. As usually defined, the Papp is a coefficient for how fast a substance crosses the barrier.

The subject of data set [1] is L-6 cells. On the set-up: method as in PMID 34832891. The conditions noted are these: comparison compounds 1-4 of the first series; read-out: Cytotoxicity L-6 Cells IC50; cited from earlier work.
Data set [2] deals with P. falciparum NF54. Further details: method as in PMID 34832891. The note with it: comparison compounds 1-4 of the first series, cited from earlier work; for pIC50: read-out: PfNF54 IC50.
A short description of data set [3]: Parallel artificial membrane permeability assay (PAMPA). The note with it: PAMPA, PBS pH 7.4, 200 µM, 5 h, room temperature; for Papp at 5 h, 200 µM: pH 7.4, Pe. The protocol:
The parallel artificial membrane permeability assay (PAMPA) is a fast and easy high-throughput assay to determine passive permeability of compounds through semi-permeable membranes (for example the blood-brain-barrier) without the influence of efflux pumps or transporter molecules.
With the high-throughput PAMPA the newly synthesized compounds were tested for their passive permeability through cell membranes without the influence of efflux pumps or transporter proteins. The assay was performed using a Corning® Gentest^TM Pre-coated PAMPA Plate System with 96-well polystyrene plates. The bottom of the acceptor plate consists of a porous membrane, whereby the pores are lined with a lipid-oil-lipid triple layer. Stock solutions of each test compound at 10 mM were prepared in DMSO or methanol and diluted with phosphate-buffered saline (PBS at a pH of 7.4) to a final concentration of 200 µM. […] The donor plate (bottom plate) was filled with the compound solutions, whereby all compounds were tested in quadruplicates. Each well of the acceptor plate (top plate) was filled with PBS buffer. Donor and acceptor plates were combined and incubated at room temperature for 5 h. After that, the plates were separated and 150 µL of each well of both plates were transferred to 96-well UV plates (Greiner Bio-One). Absorption at different wavelengths covering a range from 200 to 300 nm was measured using a SpectraMax M3 UV plate reader. […] The plates were analyzed at the wavelength where the R^2 value of the calibration curve was higher than 0.99 [41]. […] (2) cequ=[cD(t)∗VD+cA(t)∗VA]/(VD+VA) where: • VD—donor well volume (0.3 mL); • VA—acceptor well volume (0.2 mL); • cA(t)—acceptor well compound concentration at time t; • cD(t)—donor well compound concentration at time t.
Recovery of compounds from donor and acceptor wells (mass retention) was calculated as shown in the equation below. Data were only accepted when recovery exceeded 70%. (3) R=1−[cD(t)∗VD+cA(t)∗VA]/(c0∗VD) where: • R—mass retention (%); • VD—donor well volume (0.3 mL); • VA—acceptor well volume (0.2 mL); • cA(t)—acceptor well compound concentration at time t; • cD(t)—donor well compound concentration at time t; • c0—initial donor well compound concentration (200 µM).

Data set [4] in a line: Solubility in DMSO and methanol (PAMPA stock solutions). The data set is classed as physicochemical. A general note: PAMPA measures passive passage across an artificial lipid membrane.
Method: Permeability is defined using hydrochlorothiazide (Pe = 0.09 × 10^−6 cm/s) and caffeine (Pe = 8.00 × 10^−6 cm/s) as standards.
With the high-throughput PAMPA the newly synthesized compounds were tested for their passive permeability through cell membranes without the influence of efflux pumps or transporter proteins. The assay was performed using a Corning® Gentest^TM Pre-coated PAMPA Plate System with 96-well polystyrene plates. The bottom of the acceptor plate consists of a porous membrane, whereby the pores are lined with a lipid-oil-lipid triple layer. Stock solutions of each test compound at 10 mM were prepared in DMSO or methanol and diluted with phosphate-buffered saline (PBS at a pH of 7.4) to a final concentration of 200 µM. Hydrochlorothiazide (Pe = 0.9 nm/s) and caffeine (Pe = 80 nm/s) were used as standards. The donor plate (bottom plate) was filled with the compound solutions, whereby all compounds were tested in quadruplicates. Each well of the acceptor plate (top plate) was filled with PBS buffer. Donor and acceptor plates were combined and incubated at room temperature for 5 h. After that, the plates were separated and 150 µL of each well of both plates were transferred to 96-well UV plates (Greiner Bio-One). Absorption at different wavelengths covering a range from 200 to 300 nm was measured using a SpectraMax M3 UV plate reader. By measuring serial dilutions of five dilution steps covering a range from 200 to 12.5 µM, a calibration curve was prepared. The plates were analyzed at the wavelength where the R^2 value of the calibration curve was higher than 0.99 [41]. […] (2) cequ=[cD(t)∗VD+cA(t)∗VA]/(VD+VA) where: • VD—donor well volume (0.3 mL); • VA—acceptor well volume (0.2 mL); • cA(t)—acceptor well compound concentration at time t; • cD(t)—donor well compound concentration at time t.
The subject of data set [5] is P. falciparum NF54. The data set is described as follows: In vitro microplate assay against P. falciparum NF54 (3H-hypoxanthine incorporation). The note with it: for pIC50: average of four determinations, read-out: PfNF54 IC50; for S.I. = IC50 (Cyt.)/IC50 (PfNF54): L-6 cells IC50 / PfNF54 IC50. It is filed as cell-based, Plasmodium falciparum. How it is done: (§1) All newly prepared compounds were tested for their in vitro activity against the chloroquine sensitive strain NF54 of P. falciparum. Cytotoxicity was determined using L-6 cells (rat skeletal myofibroblasts). Chloroquine and podophyllotoxin were used as standards.
The in vitro activity of compounds against erythrocytic stages of the drug sensitive NF54 strain of P. falciparum […] was determined using a ^3H-hypoxanthine incorporation assay. Compounds were dissolved in DMSO at 10 mg/mL and further diluted in medium before adding to parasite cultures that were incubated in RPMI 1640 medium without hypoxanthine, supplemented with HEPES (5.94 g/L), NaHCO3 (2.1 g/L), neomycin (100 U/mL), AlbumaxR (5 g/L) and washed human red blood cells A+ at 2.5% haematocrit (0.3% parasitaemia). Serial drug dilutions of eleven 3-fold dilutions steps covering a range from 100 to 0.002 µg/mL were prepared. The 96-well plates were incubated in a humidified atmosphere at 37 °C; 4% CO2, 3% O2, 93% N2. After 48 h of incubation time, 0.05 mL of ^3H-hypoxanthine (=0.5 µCi) was added to each well of the plate. The plates were incubated for further 24 h under the same conditions. Plates were then harvested using a Betaplate^TM cell harvester (Wallac, Zurich, Switzerland). Red blood cells were transferred onto a glass fiber filter and then washed with distilled water. The dried filters were inserted into a plastic foil with 10 mL of scintillation fluid and counted in a Betaplate^TM liquid scintillation counter (Wallac, Zurich, Switzerland). IC50 values were calculated from sigmoidal inhibition curves by linear regression using Microsoft Excel. Chloroquine (Sigma C6628) was used as control.

Another data set is described as follows: in vitro. The note with it: rat. The protocol: as §1
(§2) The cytotoxicity assays were performed using 96-well microtiter plates, each well containing 4000 L-6 cells (a primary cell line derived from rat skeletal myofibroblasts, ATCC CRL-1458^TM) in 0.1 mL of RPMI 1640 medium supplemented with 1% glutamine (200 mM) and 10% fetal bovine serum. Serial drug dilutions of eleven 3-fold dilution steps covering a range from 100 to 0.002 µg/mL were prepared. After 70 h of incubation, the plates were inspected under an inverted microscope to assure growth of the controls and sterile conditions. Then, 0.01 mL resazurin solution (resazurin, 12.5 mg in 100 mL double-distilled water) was added to each well and the plates were incubated for another 2 h. The plates were read with a Spectramax Gemini XS microplate fluorometer (Molecular Devices Cooperation, Sunnyvale, CA, USA) using an excitation wavelength of 536 nm and an emission wavelength of 588 nm. IC50 values were calculated by linear regression from the sigmoidal dose inhibition curves using SoftmaxPro software (Molecular Devices Cooperation, Sunnyvale, CA, USA). Podophyllotoxin (Sigma P4405) was used as control.

The subject of data set [6] is L-6 cells. The experiment in a line: in vitro. How it is done: as §1, §2
Where [7] appears, read: reason why permeability could not be detected.
The mark [8] stands for this setting: Plasmodium falciparum, NF54, chloroquine sensitive strain NF54, erythrocytic stages.

Regarding `CC(C)(C)OC(=O)N1CCN(c2ccccc2NC(=O)c2cccc(C(F)(F)F)c2Oc2ccc(F)cc2)CC1` [Compound 1, reference compound], the pIC50 in the data set with L-6 cells [1] is 3.88. For the same compound, in the data set with P. falciparum NF54 [2], the “S.I. = IC50 (Cyt.)/IC50 (PfNF54)” value is 316.9 and the pIC50 is 6.38. In data set [3], the Pe is recorded as 2.37 10^−6 cm/s.

On to `CC(C)(C)OC(=O)N1CCN(c2ccc(NC(=O)c3cccc(C(F)(F)F)c3Oc3ccc(F)cc3)cc2)CC1` [Compound 2], for which, in the data set with L-6 cells [1], the pIC50 is 3.91. In the data set with P. falciparum NF54 [2], the “S.I. = IC50 (Cyt.)/IC50 (PfNF54)” value is reported as 461.0 and the pIC50 is 6.57.

With `CC(C)(C)C(=O)N1CCN(c2ccccc2NC(=O)c2cccc(C(F)(F)F)c2Oc2ccc(F)cc2)CC1` [Compound 3], the pIC50 is 3.73 with L-6 cells [1] and 6.21 with P. falciparum NF54 [2]. In addition, the “S.I. = IC50 (Cyt.)/IC50 (PfNF54)” value with P. falciparum NF54 [2] is on record as 299.7.

As for `CC(C)(C)C(=O)N1CCN(c2ccc(NC(=O)c3cccc(C(F)(F)F)c3Oc3ccc(F)cc3)cc2)CC1` [Compound 4], the pIC50 in the data set with L-6 cells [1] was 4.00. In the data set on P. falciparum NF54 [2], the “S.I. = IC50 (Cyt.)/IC50 (PfNF54)” value was 171.9 and the negative-log IC50 (pIC50) was 6.24.

Take `CC(C)(C)OC(=O)N1CCN(c2ccccc2NC(=O)c2ccccc2Oc2ccc(F)cc2)CC1` [Compound 26, tert-Butyl 4-{2-[2-(4-fluorophenoxy)benzamido]phenyl}piperazine-1-carboxylate]: the “solubility in DMSO and methanol” value in data set [4] (setting [7]) is given as “insufficient solubility”. Further, the pIC50 in the data set on P. falciparum NF54 [5] (setting [8]) was 6.20. In “in vitro”, half-maximal inhibition (IC50 at 72 h) was put at 154 µM.

As for `CC(C)(C)C(=O)N1CCN(c2ccccc2NC(=O)c2ccccc2Oc2ccc(F)cc2)CC1` [Compound 33, N-{2-[4-(2,2-Dimethylpropanoyl)piperazin-1-yl]phenyl}-2-(4-fluorophenoxy)benzamid], in data set [4] (setting [7]), the “solubility in DMSO and methanol” value is reported as “insufficient solubility”. Further, the pIC50 in the data set on P. falciparum NF54 [5] (setting [8]) is 5.67. In the data set “in vitro”, this compound gave a 50% inhibitory concentration (IC50) at 72 h of 38.3 µM.

`CC(C)(C)C(=O)N1CCN(c2ccc(NC(=O)c3cccc([N+](=O)[O-])c3Oc3ccc(F)cc3)cc2)CC1` [Compound 44, N-{4-[4-(2,2-Dimethylpropanoyl)piperazin-1-yl]phenyl}-2-(4-fluorophenoxy)-3-nitrobenzamid]: the “solubility in DMSO and methanol” value in data set [4] (setting [7]) was “insufficient solubility”. In the data set with P. falciparum NF54 [5] (setting [8]), the pIC50 was 5.82. Besides, it took 144 µM to reach half-maximal inhibition in “in vitro” (IC50 at 72 h).

Take `CC(C)(C)C(=O)N1CCN(c2ccc(NC(=O)c3cccc(F)c3Oc3ccc(F)cc3)cc2)CC1` [Compound 45, N-{4-[4-(2,2-Dimethylpropanoyl)piperazin-1-yl]phenyl}-3-fluoro-2-(4-fluorophenoxy)benzamid]: the pIC50 in the data set with P. falciparum NF54 [5] (setting [8]) is 5.75. The compound further returned an IC50 at 72 h in the data set “in vitro” of 109 µM. In data set [3], this compound returned a Papp at 5 h, 200 µM of 5.13 ×10⁻⁶ cm/s.

`CC(C)(C)OC(=O)N1CCN(c2ccccc2NC(=O)c2cccc(N)c2Oc2ccc(F)cc2)CC1` [Compound 46, tert-Butyl 4-{2-[3-amino-2-(4-fluorophenoxy)benzamido]phenyl}piperazine-1-carboxylate]: in the data set on P. falciparum NF54 [5], the “S.I. = IC50 (Cyt.)/IC50 (PfNF54)” value is recorded as 126.0. Also, the pIC50 in the data set with P. falciparum NF54 [5] (setting [8]) is 6.00. In the data set “in vitro”, half-maximal inhibition (IC50 at 72 h) required 127 µM. The compound further gave a Papp at 5 h, 200 µM in data set [3] of 1.44 ×10⁻⁶ cm/s.

For the compound `CC(C)(C)OC(=O)N1CCN(c2ccc(NC(=O)c3cccc(N)c3Oc3ccc(F)cc3)cc2)CC1` [Compound 47, tert-Butyl 4-{4-[3-amino-2-(4-fluorophenoxy)benzamido]phenyl}piperazine-1-carboxylate], the pIC50 in the data set with P. falciparum NF54 [5] (setting [8]) is 5.51. Also, the IC50 at 72 h in the data set “in vitro” stood at 158 µM. Moreover, the Papp at 5 h, 200 µM in data set [3] was 0.62 ×10⁻⁶ cm/s.

With “tert-Butyl 4-{4-[3-fluoro-2-(4-fluorophenoxy)benzamido]phenyl}piperazin-1-carboxylate [Compound 27]”, the “solubility in DMSO and methanol” value in data set [4] is listed as “insufficient solubility”. In the data set on P. falciparum NF54 [5], the “S.I. = IC50 (Cyt.)/IC50 (PfNF54)” value was 237.5. Moreover, the pIC50 in the data set with P. falciparum NF54 [5] (chloroquine sensitive strain NF54, erythrocytic stages) was 6.19; with L-6 cells [6] it was 3.81.
